Reference: patent publication US7906486B2, “Method of treating or preventing tissue deterioration, injury or damage due to disease of mucosa” (SciClone Pharmaceuticals, Inc., priority 2007, dated 2011)
“And” between values parts separate entries of the source, which are not always exact repeats. Identical values can stand only once.

How the values were obtained:
[1] = Weights and survival (Example 1, SCI-01); type: in vivo, Syrian Golden Hamsters
Experimental: (§1) All animals were weighed daily and their survival recorded, in order to assess possible differences in animal weight among treatment groups as an indication for mucositis severity and/or possible toxicity resulting from the treatments.
The mean daily percent weight change data was evaluated. The saline (PBS) treated control hamsters gained an average of 70.4% of their starting weight during the study. Hamsters in the group receiving SCV-07 at 1 ug/kg on days −1 to 16 gained an average of 68.4% of their starting weight during the study. Hamsters in the group receiving SCV-07 at 10 ug/kg on days −1 to 16 gained an average of 70.3% of their starting weight during the study. Hamsters in the group receiving SCV-07 at 100 ug/kg on days −1 to 16 gained an average of 82.0% of their starting weight during the study. The significance of these differences was evaluated by calculating the area-under-the-curve (AUC) for the weight gain of each animal, and then comparing the different treatment groups using a One-Way ANOVA test.

[2] = Weights and survival (Example 3, SCI-03); type: in vivo, Syrian Golden Hamsters
Experimental: as §1
There were no significant differences in weight changes between study groups. The mean daily percent weight change data was evaluated. The saline treated control hamsters gained an average of 76.3% of their starting weight during the study. Hamsters in the group receiving SCV-07 at 100 μg/kg on days −1 to 29 gained an average of 80.7% of their starting weight during the study. Hamsters in the group receiving SCV-07 at 100 μg/kg on days of radiation only gained an average of 66.3% of their starting weight during the study. Hamsters in the group receiving SCV-07 at 100 μg/kg on day −1, day 4, day 5 and days 10-29 gained an average of 69.7% of their starting weight during the study. The significance of these differences was evaluated by calculating the area-under-the-curve (AUC) for the weight gain of each animal, and then comparing the different treatment groups using a One-Way ANOVA test.

[3] = test system: spleen lymphocytes; conditions: cited from earlier work
[4] = individual animals, Group 4 (SCV-07 100 μg/kg on days −1, 4, 5 and 10-29), second part of table

For `N[C@H](CCC(=O)N[C@@H](Cc1c[nH]c2ccccc12)C(=O)O)C(=O)O` [SCV-07, γ-D-glutamyl-L-tryptophan], the “average weight gain, % of starting weight during the study” value (from here on “average weight gain, %”) ([1]; 1 ug/kg on days -1 to 16) was 68.4%, the “average weight gain, %” value ([1]; 10 ug/kg on days -1 to 16) was 70.3% and the “average weight gain, %” value ([1]; 100 ug/kg on days -1 to 16) was 82.0%. The “average weight gain, %” value ([2]; 100 ug/kg on day -1, day 4, day 5 and days 10-29) was 69.7%, the “average weight gain, %” value ([2]; 100 ug/kg on days -1 to 29) was 80.7% and the “average weight gain, %” value ([2]; 100 ug/kg on days of radiation only) was 66.3%. The “Animal weight, Day 18” value [2, 4] was 113 and 121 and 88 and 98, the “Animal weight, Day 19” value [2, 4] was 118 and 127 and 92 and 102 and the “Animal weight, Day 20” value [2, 4] was 118 and 128 and 92 and 104. The “Animal weight, Day 21” value [2, 4] was 119 and 131 and 94 and 109, the “Animal weight, Day 22” value [2, 4] was 120 and 133 and 95 and 109 and the “Animal weight, Day 23” value [2, 4] was 120 and 135 and 97 and 111. For the same compound, the “Animal weight, Day 24” value [2, 4] was 123 and 135 and 99 and 112, the “Animal weight, Day 25” value [2, 4] was 122 and 137 and 98 and 113 and the “Animal weight, Day 26” value [2, 4] was 123 and 139 and 100 and 118. For the same compound, the “Animal weight, Day 27” value [2, 4] was 127 and 140 and 102 and 121, the “Animal weight, Day 28” value [2, 4] was 128 and 142 and 103 and 122 and the “Animal weight, Day 29” value [2, 4] was 128 and 142 and 102 and 118. For the same compound, the “Animal weight, Day 30” value [2, 4] was 132 and 146 and 105 and 126, the “Animal weight, Day 31” value [2, 4] was 134 and 150 and 108 and 126 and the “Animal weight, Day 32” value [2, 4] was 134 and 149 and 109 and 129. The “Animal weight, Day 33” value [2, 4] was 137 and 154 and 112 and 132, the “Animal weight, Day 35” value [2, 4] was 140 and 154 and 113 and 134 and the “Animal weight, Day 34” value ([2]; individual animals, Group 4 (SCV-07 100 μg/kg on days −1, 4, 5 and 10-29), second part of table, c18, day inferred as 34) was 139 and 153 and 112 and 133. For the same compound, the “IL-2 receptor expression by spleen lymphocytes” value ([3]; Con-A-induced) was “increases” and the “Con-A-induced interleukin-2 (IL-2) production” value ([3]; spleen lymphocytes) was “increases”.
